Key:
[1] = 101.3 kPa, Liquid
[2] = xn = mol fraction of the nth substance listed; settings: 101.3 kPa, Liquid

CCCC(C)O (stereo not drawn) [pentan-2-ol]
[1]
Settings | mass density [kg/m3] | viscosity [mPa·s]
298.15 K | 805.41 | 3.499
303.15 K | 801.21 | 2.801
308.15 K | 796.64 | 2.334
313.15 K | 792.51 | 1.993

CCCCCC(C)O (stereo not drawn) [2-heptanol]
[1]
Settings | mass density [kg/m3] | viscosity [mPa·s]
298.15 K | 813.18 | 5.023
303.15 K | 809.26 | 4.151
308.15 K | 805.01 | 3.478
313.15 K | 801.14 | 2.852

CCCCC(C)O (stereo not drawn) [2-hexanol]
[1]
Settings | mass density [kg/m3] | viscosity [mPa·s]
298.15 K | 810.14 | 4.101
303.15 K | 806.13 | 3.411
308.15 K | 802.06 | 2.819
313.15 K | 797.96 | 2.219

O=C1CCCCC1 [cyclohexanone] + CC(C)O
[2]
Settings | mass density, 298.15 K [kg/m3] | mass density, 303.15 K [kg/m3] | mass density, 308.15 K [kg/m3] | mass density, 313.15 K [kg/m3] | viscosity, 298.15 K [mPa·s] | viscosity, 303.15 K [mPa·s] | viscosity, 308.15 K [mPa·s] | viscosity, 313.15 K [mPa·s]
x1 = 0.0812 | 797.69 | 792.97 | 788.11 | 783.28 | 1.689 | 1.489 | 1.301 | 1.142
x1 = 0.1576 | 812.54 | 807.67 | 802.73 | 797.79 | 1.436 | 1.268 | 1.098 | 0.961
x1 = 0.2398 | 827.76 | 822.83 | 817.68 | 812.71 | 1.236 | 1.081 | 0.934 | 0.817
x1 = 0.3495 | 846.99 | 841.93 | 836.59 | 831.76 | 1.067 | 0.934 | 0.809 | 0.715
x1 = 0.4363 | 861.43 | 856.27 | 851.05 | 846.26 | 1.023 | 0.899 | 0.779 | 0.689
x1 = 0.5601 | 880.96 | 875.76 | 870.51 | 865.33 | 1.076 | 0.951 | 0.845 | 0.751
x1 = 0.6502 | 894.41 | 889.21 | 884.09 | 878.95 | 1.177 | 1.056 | 0.949 | 0.854
x1 = 0.7403 | 907.32 | 902.15 | 897.23 | 892.17 | 1.331 | 1.202 | 1.087 | 0.995
x1 = 0.8481 | 922.15 | 917.06 | 912.28 | 907.09 | 1.581 | 1.437 | 1.301 | 1.211
x1 = 0.9384 | 934.01 | 929.05 | 924.41 | 919.35 | 1.845 | 1.675 | 1.537 | 1.412
x1 = 1 | 941.91 | 937.24 | 932.67 | 927.72 | 2.057 | 1.847 | 1.694 | 1.546

CC(C)O [propan-2-ol]
[1]
Settings | mass density [kg/m3] | viscosity [mPa·s]
298.15 K | 781.09 | 2.055
303.15 K | 776.57 | 1.788
308.15 K | 771.87 | 1.563
313.15 K | 767.36 | 1.378

CC(C)O [propan-2-ol] + O=C1CCCCC1
[2], x2 = 0
Settings | mass density [kg/m3] | viscosity [mPa·s]
298.15 K | 781.09 | 2.055
303.15 K | 776.57 | 1.788
308.15 K | 771.87 | 1.563
313.15 K | 767.36 | 1.378

O=C1CCCCC1 [cyclohexanone]
[1]
Settings | mass density [kg/m3] | viscosity [mPa·s]
298.15 K | 941.91 | 2.057
303.15 K | 937.24 | 1.847
308.15 K | 932.67 | 1.694
313.15 K | 927.72 | 1.546

CCCCCC(C)O (stereo not drawn) [2-heptanol] + O=C1CCCCC1
[2]
Settings | mass density, 298.15 K [kg/m3] | mass density, 303.15 K [kg/m3] | mass density, 308.15 K [kg/m3] | mass density, 313.15 K [kg/m3] | viscosity, 298.15 K [mPa·s] | viscosity, 303.15 K [mPa·s] | viscosity, 308.15 K [mPa·s] | viscosity, 313.15 K [mPa·s]
x2 = 0 | 813.18 | 809.26 | 805.01 | 801.14 | 5.023 | 4.151 | 3.478 | 2.852
x2 = 0.0826 | 820.37 | 816.21 | 811.69 | 807.61 | 4.282 | 3.546 | 2.94 | 2.412
x2 = 0.1625 | 827.64 | 823.36 | 818.81 | 814.53 | 3.64 | 2.986 | 2.448 | 1.989
x2 = 0.2415 | 835.26 | 830.91 | 826.28 | 821.87 | 3.081 | 2.473 | 1.999 | 1.604
x2 = 0.3506 | 846.69 | 842.19 | 837.46 | 832.94 | 2.401 | 1.874 | 1.482 | 1.151
x2 = 0.44 | 856.83 | 852.22 | 847.44 | 842.79 | 1.954 | 1.468 | 1.141 | 0.862
x2 = 0.5603 | 871.72 | 866.99 | 862.12 | 857.35 | 1.513 | 1.107 | 0.849 | 0.627
x2 = 0.6494 | 883.79 | 878.98 | 874.11 | 869.26 | 1.308 | 0.971 | 0.773 | 0.576
x2 = 0.7394 | 896.96 | 892.15 | 887.29 | 882.32 | 1.243 | 0.976 | 0.816 | 0.647
x2 = 0.85 | 914.67 | 909.91 | 905.04 | 900.06 | 1.391 | 1.193 | 1.054 | 0.91
x2 = 0.9392 | 930.26 | 925.58 | 920.79 | 915.85 | 1.727 | 1.535 | 1.411 | 1.256

O=C1CCCCC1 [cyclohexanone] + CCCCC(C)O
[2], x1 = 1
Settings | mass density [kg/m3] | viscosity [mPa·s]
298.15 K | 941.91 | 2.057
303.15 K | 937.24 | 1.847
308.15 K | 932.67 | 1.694
313.15 K | 927.72 | 1.546

CCC(C)O (stereo not drawn) [butan-2-ol]
[1]
Settings | mass density [kg/m3] | viscosity [mPa·s]
298.15 K | 803.01 | 3.104
303.15 K | 798.29 | 2.597
308.15 K | 793.57 | 2.152
313.15 K | 789.15 | 1.733

CCC(C)O (stereo not drawn) [butan-2-ol] + O=C1CCCCC1
[2], x2 = 0
Settings | mass density [kg/m3] | viscosity [mPa·s]
298.15 K | 803.01 | 3.104
303.15 K | 798.29 | 2.597
308.15 K | 793.57 | 2.152
313.15 K | 789.15 | 1.733

Reference: the NIST ThermoML archive (doi:10.1021/je200806n)
